The values that follow come from publication PMC9504419, “Multipotent Cholinesterase Inhibitors for the Treatment of Alzheimer’s Disease: Synthesis, Biological Analysis and Molecular Docking Study of Benzimidazole-Based Thiazole Derivatives” (Molecules, 2022).

One assay has as its target BuChE (Homo sapiens, UniProt P06276). The assay can be described thus: biochemical. The class given is biochemical. Here is the method: (§1) The inhibition of AChE and BChE was determined using a method described earlier. Briefly, the stock solutions (1 mg/mL) of test analogues were prepared using DMSO. The working solutions (1–100 μg/mL) were prepared using serial dilutions (a serial dilution means a series of diluted solutions, e.g., 0.1 mg/mL, 0.2 mg/mL and so on; the solutions contained 5% DMSO and 95% water). The various concentrations of test compounds (10 μL) were pre-incubated with sodium phosphate buffer (0.1 M; pH 8.0; 150 μL) and AChE (0.1 U/mL; 20 μL) for 15 min at 25 °C. The reaction was initiated via the addition of DTNB (1 mM; 10 μL) and […] (1 mM; 10 μL). The mixture of reaction was mixed using a cyclomixer and incubated for 10 min at 25 °C. The absorbance was measured using a microplate reader at a 410 nm wavelength against the blank reading containing 10μL DMSO instead of the test compound (the solution contained 5% DMSO and 95% water).
(§2) % Inhibition = (Absorbance of control—Absorbance of compound)/Absorbance of control × 100

The next assay has as its target AChE (Homo sapiens, UniProt P22303). The assay can be described thus: biochemical. The class given is biochemical. Particulars: for Selectivity Index: AChE and BuChE IC50 values. Here is the method: as §1, §2

Like-named read-outs stand apart in the source and are kept apart here.

Chain of AChE (P22303 32-614): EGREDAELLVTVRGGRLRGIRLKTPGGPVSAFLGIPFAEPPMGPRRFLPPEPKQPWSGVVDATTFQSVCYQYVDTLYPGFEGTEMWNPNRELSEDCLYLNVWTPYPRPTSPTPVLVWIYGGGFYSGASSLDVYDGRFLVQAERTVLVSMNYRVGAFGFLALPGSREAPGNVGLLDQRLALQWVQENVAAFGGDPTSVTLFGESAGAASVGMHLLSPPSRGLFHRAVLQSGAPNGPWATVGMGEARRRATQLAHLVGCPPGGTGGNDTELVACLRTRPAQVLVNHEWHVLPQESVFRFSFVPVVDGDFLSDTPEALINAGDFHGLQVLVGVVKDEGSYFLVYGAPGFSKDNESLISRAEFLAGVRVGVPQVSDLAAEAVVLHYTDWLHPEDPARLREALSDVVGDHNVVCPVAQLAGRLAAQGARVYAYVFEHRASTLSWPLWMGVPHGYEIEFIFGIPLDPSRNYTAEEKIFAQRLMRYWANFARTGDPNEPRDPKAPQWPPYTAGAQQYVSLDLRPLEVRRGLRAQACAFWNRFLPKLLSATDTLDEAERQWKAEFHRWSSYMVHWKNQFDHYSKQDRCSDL
Chain of BuChE (P06276 29-602): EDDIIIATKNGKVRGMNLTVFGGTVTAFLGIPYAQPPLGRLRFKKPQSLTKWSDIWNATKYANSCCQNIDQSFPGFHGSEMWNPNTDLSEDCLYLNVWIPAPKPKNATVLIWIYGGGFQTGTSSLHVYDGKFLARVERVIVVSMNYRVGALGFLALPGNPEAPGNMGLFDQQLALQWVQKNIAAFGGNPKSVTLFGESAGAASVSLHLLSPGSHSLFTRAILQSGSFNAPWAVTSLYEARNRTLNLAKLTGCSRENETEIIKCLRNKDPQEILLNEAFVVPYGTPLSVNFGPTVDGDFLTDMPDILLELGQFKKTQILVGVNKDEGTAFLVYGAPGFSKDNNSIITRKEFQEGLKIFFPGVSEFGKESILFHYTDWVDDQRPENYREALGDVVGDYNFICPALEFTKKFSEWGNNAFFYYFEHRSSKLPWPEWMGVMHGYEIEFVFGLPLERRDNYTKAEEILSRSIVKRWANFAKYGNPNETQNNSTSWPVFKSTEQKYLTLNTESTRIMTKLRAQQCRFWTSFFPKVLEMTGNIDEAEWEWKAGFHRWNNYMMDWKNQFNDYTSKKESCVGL

In the case of `O=[N+]([O-])c1cc(O)c(Cl)cc1-c1csc(N/N=C(/CSc2nc3ccccc3[nH]2)c2ccccc2O)n1` [compound 2, (E)-4-(2-(2-(2-((1H-benzo[d]imidazol-2-yl)thio)-1-(2-hydroxyphenyl)ethylidene)hydrazinyl)thiazol-4-yl)-2-chloro-5-nitrophenol], the values for the IC50 on BuChE (read-out: IC50BuChE) and on AChE (read-out: IC50AChE) were 3200 ± 100 nM and 2300 ± 100 nM, respectively.
With `Oc1ccc(-c2csc(N/N=C(/CSc3nc4ccccc4[nH]3)c3ccccc3)n2)cc1` [compound 3, (E)-4-(2-(2-(2-((1H-benzo[d]imidazol-2-yl)thio)-1-phenylethylidene) hydrazinyl)thiazol-4-yl)phenol], the IC50 on BuChE (read-out: IC50BuChE) worked out at 1800 ± 100 nM; on AChE (read-out: IC50AChE), 800 ± 100 nM. For the same compound, at AChE, the “Selectivity Index” value amounted to 2.25.
For `COc1cccc(-c2csc(N/N=C(/CSc3nc4ccccc4[nH]3)c3ccccc3)n2)c1` [compound 4, (E)-2-(2-(2-((1H-benzo[d]imidazol-2-yl)thio)-1-phenylethylidene)hydrazinyl)-4-(3-methoxyphenyl)thiazole], in that order: 5300 ± 100 nM, 3500 ± 100 nM and 1.51.
Consider `Cc1ccc(-c2csc(N/N=C(/CSc3nc4ccccc4[nH]3)c3ccccc3)n2)cc1` [compound 5, (E)-2-(2-(2-((1H-benzo[d]imidazol-2-yl)thio)-1-phenylethylidene)hydrazinyl)-4-(p-tolyl)thiazole], for which the IC50 at BuChE (read-out: IC50BuChE) stood at 10700 ± 200 nM; on AChE (read-out: IC50AChE) it was 8600 ± 200 nM. The “Selectivity Index” value on AChE is on record as 1.24.
For `Clc1ccc(-c2csc(N/N=C(/CSc3nc4ccccc4[nH]3)c3ccccc3)n2)cc1Cl` [compound 6, (E)-2-(2-(2-((1H-benzo[d]imidazol-2-yl)thio)-1-phenylethylidene)hydrazinyl)-4-(3,4-dichlorophenyl)thiazole], in that order: 1400 ± 50 nM, 700 ± 50 nM and 2.0.
On to `Cc1ccc(/C(CSc2nc3ccccc3[nH]2)=N\Nc2nc(-c3ccccc3[N+](=O)[O-])cs2)cc1` [compound 7, (E)-2-(2-(2-((1H-benzo[d]imidazol-2-yl)thio)-1-(p-tolyl)ethylidene)hydrazinyl)-4-(2-nitrophenyl)thiazole], for which the IC50 at BuChE (read-out: IC50BuChE) amounted to 3500 ± 100 nM; at AChE (read-out: IC50AChE), 2900 ± 100 nM. The “Selectivity Index” value at AChE worked out at 1.21.
As for `Cc1ccc(/C(CSc2nc3ccccc3[nH]2)=N\Nc2nc(-c3cccc([N+](=O)[O-])c3)cs2)cc1` [compound 8, (E)-2-(2-(2-((1H-benzo[d]imidazol-2-yl)thio)-1-(p-tolyl)ethylidene)hydrazinyl)-4-(3-nitrophenyl)thiazole], the IC50 at BuChE (read-out: IC50BuChE) stood at 7900 ± 100 nM; on AChE (read-out: IC50AChE) it was 6300 ± 100 nM. The “Selectivity Index” value at AChE came out at 1.25.
Consider `O=[N+]([O-])c1cc(O)c(Cl)cc1-c1csc(N/N=C(/CSc2nc3ccccc3[nH]2)c2cccc(O)c2[N+](=O)[O-])n1` [compound 9, (E)-4-(2-(2-(2-((1H-benzo[d]imidazol-2-yl)thio)-1-(3-hydroxy-2-nitrophenyl)ethylidene)hydrazinyl)thiazol-4-yl)-2-chloro-5-nitrophenol], for which the IC50 at BuChE is 3200 ± 100 nM; on AChE, 1300 ± 100 nM. At AChE, the “Selectivity Index” value is 2.46.
As for `CN(C)c1cc([N+](=O)[O-])c(-c2csc(N/N=C(/CSc3nc4ccccc4[nH]3)c3ccc(-c4ccccc4)cc3)n2)cc1O` [compound 10, (E)-5-(2-(2-(2-((1H-benzo[d]imidazol-2-yl)thio)-1-([1,1’-biphenyl]-4-yl)ethylidene)hydrazinyl)thiazol-4-yl)-2-(dimethylamino)-4-nitrophenol], on BuChE, the IC50BuChE entry was “inactivity”. Further, the IC50AChE result against AChE was “inactivity”.
Regarding `Cc1ccc(/C(CSc2nc3ccccc3[nH]2)=N\Nc2nc(-c3ccc(Cl)c(Cl)c3)cs2)cc1` [compound 11, (E)-2-(2-(2-((1H-benzo[d]imidazol-2-yl)thio)-1-(p-tolyl)ethylidene)hydrazinyl)-4-(3,4-dichlorophenyl)thiazole], the IC50 on BuChE (read-out: IC50BuChE) is 1100 ± 100 nM; at AChE (read-out: IC50AChE) it was 400 ± 50 nM. In addition, on AChE, the “Selectivity Index” value worked out at 2.75.
At BuChE, `Cc1ccc(/C(CSc2nc3ccccc3[nH]2)=N\Nc2nc(-c3cc(Cl)c(O)cc3[N+](=O)[O-])cs2)c([N+](=O)[O-])c1` [compound 12, (E)-4-(2-(2-(2-((1H-benzo[d]imidazol-2-yl)thio)-1-(4-methyl-2-nitrophenyl)ethylidene)hydrazinyl)thiazol-4-yl)-2-chloro-5-nitrophenol] gave an IC50 of 2100 ± 100 nM. Besides, at AChE, the IC50 came out at 1400 ± 100 nM and the “Selectivity Index” value stood at 1.5.
Consider `Cc1ccc(-c2csc(N/N=C(/CSc3nc4ccccc4[nH]3)c3ccccc3[N+](=O)[O-])n2)cc1` [compound 13, (E)-2-(2-(2-((1H-benzo[d]imidazol-2-yl)thio)-1-(2-nitrophenyl)ethylidene) hydrazinyl)-4-(p-tolyl)thiazole], for which the IC50 at BuChE (read-out: IC50BuChE) was 5100 ± 100 nM; on AChE (read-out: IC50AChE), 3200 ± 100 nM. At AChE, the “Selectivity Index” value is 1.59.
Consider `COc1cccc(-c2csc(N/N=C(/CSc3nc4ccccc4[nH]3)c3ccccc3[N+](=O)[O-])n2)c1` [compound 14, (E)-2-(2-(2-((1H-benzo[d]imidazol-2-yl)thio)-1-(2-nitrophenyl)ethylidene) hydrazinyl)-4-(3-methoxyphenyl)thiazole], for which the IC50 on BuChE (read-out: IC50BuChE) is 4200 ± 100 nM; on AChE (read-out: IC50AChE), 3100 ± 100 nM. In addition, the “Selectivity Index” value at AChE worked out at 1.35.
For `O=[N+]([O-])c1ccccc1/C(CSc1nc2ccccc2[nH]1)=N\Nc1nc(-c2ccc(Cl)c(Cl)c2)cs1` [compound 15, (E)-2-(2-(2-((1H-benzo[d]imidazol-2-yl)thio)-1-(2-nitrophenyl)ethylidene) hydrazinyl)-4-(3,4-dichlorophenyl)thiazole], in that order: 700 ± 50 nM, 300 ± 50 nM and 2.33.
Regarding `O=[N+]([O-])c1ccccc1/C(CSc1nc2ccccc2[nH]1)=N\Nc1nc(-c2ccc(O)cc2)cs1` [compound 16, (E)-4-(2-(2-(2-((1H-benzo[d]imidazol-2-yl)thio)-1-(2-nitrophenyl)ethylidene) hydrazinyl)thiazol-4-yl)phenol], the IC50 at BuChE (read-out: IC50BuChE) is 500 ± 50 nM; on AChE (read-out: IC50AChE), 200 ± 50 nM. For the same compound, at AChE, the “Selectivity Index” value is recorded as 2.5.
As to `O=[N+]([O-])c1ccccc1-c1csc(N/N=C(/CSc2nc3ccccc3[nH]2)c2ccc(Cl)c(Cl)c2)n1` [compound 17, (E)-2-(2-(2-((1H-benzo[d]imidazol-2-yl)thio)-1-(3,4-dichlorophenyl)ethylidene) hydrazinyl)-4-(2-nitrophenyl)thiazole], the IC50 on BuChE (read-out: IC50BuChE) was 1800 ± 100 nM; on AChE (read-out: IC50AChE), 1100 ± 50 nM. Moreover, on AChE, the “Selectivity Index” value amounted to 1.64.
On to `O=[N+]([O-])c1cccc(-c2csc(N/N=C(/CSc3nc4ccccc4[nH]3)c3ccc(Cl)c(Cl)c3)n2)c1` [compound 18, (E)-2-(2-(2-((1H-benzo[d]imidazol-2-yl)thio)-1-(3,4-dichlorophenyl)ethylidene) hydrazinyl)-4-(3-nitrophenyl)thiazole], for which the values for the IC50 at BuChE (read-out: IC50BuChE) and on AChE (read-out: IC50AChE) were 1200 ± 100 nM and 700 ± 50 nM, respectively. Also, the “Selectivity Index” value on AChE was found to be 1.71.
As for `Cc1ccc(-c2csc(N/N=C(/CSc3nc4ccccc4[nH]3)c3ccc(Cl)c(Cl)c3)n2)cc1` [compound 19, (E)-2-(2-(2-((1H-benzo[d]imidazol-2-yl)thio)-1-(3,4-dichlorophenyl)ethylidene) hydrazinyl)-4-(p-tolyl)thiazole], the IC50 amounted to 1300 ± 100 nM at BuChE (read-out: IC50BuChE) and 1400 ± 100 nM at AChE (read-out: IC50AChE). Besides, the “Selectivity Index” value at AChE was determined as 0.92.
Consider `COc1cccc(-c2csc(N/N=C(/CSc3nc4ccccc4[nH]3)c3ccc(Cl)c(Cl)c3)n2)c1` [compound 20, (E)-2-(2-(2-((1H-benzo[d]imidazol-2-yl)thio)-1-(3,4-dichlorophenyl)ethylidene) hydrazinyl)-4-(3-methoxyphenyl)thiazole], for which the values for the IC50 on BuChE (read-out: IC50BuChE) and on AChE (read-out: IC50AChE) were 1900 ± 100 nM and 1200 ± 100 nM, respectively. Moreover, the “Selectivity Index” value on AChE is given as 1.58.
For the compound `Clc1ccc(/C(CSc2nc3ccccc3[nH]2)=N\Nc2nc(-c3ccc(Cl)c(Cl)c3)cs2)cc1Cl` [compound 21, (E)-2-(2-(2-((1H-benzo[d]imidazol-2-yl)thio)-1-(3,4-dichlorophenyl)ethylidene) hydrazinyl)-4-(3,4-dichlorophenyl)thiazole], the IC50 on BuChE (read-out: IC50BuChE) was determined as 200 ± 50 nM; at AChE (read-out: IC50AChE), 100 ± 50 nM. The “Selectivity Index” value at AChE is recorded as 2.0.
Take `COc1ccccc1-c1csc(N/N=C(/CSc2nc3ccccc3[nH]2)c2ccc(Cl)c(Cl)c2)n1` [compound 22, (E)-2-(2-(2-((1H-benzo[d]imidazol-2-yl)thio)-1-(3,4-dichlorophenyl)ethylidene) hydrazinyl)-4-(2-methoxyphenyl)thiazole]: the values for the IC50 on BuChE (read-out: IC50BuChE) and on AChE (read-out: IC50AChE) were 700 ± 100 nM and 400 ± 200 nM, respectively. Also, the “Selectivity Index” value at AChE came to 1.75.
With `Clc1ccc(/C(CSc2nc3ccccc3[nH]2)=N\Nc2nc(-c3ccc(Br)cc3)cs2)cc1Cl` [compound 23, (E)-2-(2-(2-((1H-benzo[d]imidazol-2-yl)thio)-1-(3,4-dichlorophenyl)ethylidene) hydrazinyl)-4-(4-bromophenyl)thiazole], the IC50 amounted to 6700 ± 100 nM at BuChE (read-out: IC50BuChE) and 4700 ± 100 nM at AChE (read-out: IC50AChE). For the same compound, the “Selectivity Index” value on AChE was 1.43.
